Assay results: US12138256B2, “Treatment of cardiopulmonary disorders” (Bayer Aktiengesellschaft, priority 2021, dated 2024)
Several values for one entry are separate records, joined by “and”; a condition that tells them apart may be missing. Identical values can stand only once.

What was measured:
[1] = system: guinea pig trachea pre-contracted with carbachol; experiment: Bronchorelaxation in vitro: carbachol pre-contracted guinea pig trachea rings, wash-out recovery factor (C-3.1)
Description: Male Dunkin Hartley guinea pig were euthanized using carbon dioxide. The primary bronchus was removed and placed in ice-cold Krebs-Henseleit buffer of following composition (in mmol/l): […] For recording of isometric tension, the bronchial rings were mounted between two hooks. One hook was connected to a force transducer the other was moveable and allowed a precise adjustment of resting tension at 1.5 g. During the equilibration period of 60 min the tissue was washed every 20 min with buffer. […] After 30 min, a cumulative dose response curve of the test compound was constructed. Every concentration was incubated till the response was stable. […] The relaxation was expressed as percentage tension. […] The recovery factor was calculated as a ratio of bronchodilation 1 h after compound application and bronchodilation 1 h after removal (wash out) of test compound. […] Relaxation via Cinaciguat (comparative example 1) and Riociguat (comparative example 2) reached a steady state within the 1 h incubation time. […] In contrast, relaxation induced by comparative example 11 was further progressing during the wash out period (recovery factor 1.41).

[2] = system: thromboxane analog U46619 induced PAH in minipigs; experiment: Haemodynamics (PAP, BP) in the anesthetized thromboxane challenged PAH minipig after inhaled (nebulized) application (C-2.1); assay type: in vivo, Göttingen minipig; conditions: inhaled; for BP % change vs. baseline / PAP % change vs. baseline: 100 μg/kg nominal dose, individual animals
Description: Experiments were carried out in anesthetized Göttingen minipigs, anesthetized rats and conscious, telemetrically instrumented dogs. Acute pulmonary hypertension was induced for example by infusion of a thromboxane A2 analogon, by acute hypoxia treatment or hypoxia treatment over a number of weeks and/or by administration of monocrotaline. Test substances were applied via nebulization using the Nebutec® or Aeroneb® Pro nebulizer system, and/or by means of powder and/or solution applicators for experimental intratracheal administration (Liquid MicroSprayer®, Dry Powder Insufflator™, MicroSprayer®, Penn-Century Inc., Wyndmoor, PA, USA) or after solid nebulization inserted into the inspiration arm of the ventilation. Compounds were employed as solids or solutions depending on the molecular structure and the technical possibility depending on the experiment. The haemodynamic signals were recorded and evaluated by means of pressure transducers/amplifiers (Combitransducer B. Braun, Melsungen, Germany or CardioMEMS Inc., Atlanta, GA, USA) and Ponemah® or CardioMems® as data aquisition software. After long-term experiments (for example monocrotaline rat), it is also possible to carry out a histological evaluation.
Healthy Gottingen Minipigs® Ellegaard (Ellegaard, Denmark) of both sexes and having a weight of 2-6 kg were used. The animals were sedated by i.m. administration of about 25 mg/kg ketamine and about 10 mg/kg azaperone. Anaesthesia was initiated by i.v. administration of about 2 mg/kg ketamine and about 0.3 mg/kg midazolam. Maintenance of anaesthesia was by i.v. administration of about 7.5-30 mg/kg/h ketamine and about 1-4 mg/kg/h midazolam (rate of infusion 1-4 ml/kg/h) and about 150 μg/kg/h pancuronium bromide (for example Pancuronium-Actavis). After intubation, the animals were ventilated by the ventilator at a constant respiratory volume (10-12 ml/kg, 35 breaths/min; Avea®, Viasys Healthcare, USA, or Engstrom Carestation, GE Healthcare, Freiburg, Germany) such that an end-tidal CO2 concentration of about 5% was achieved. Ventilation was performed with room air, enriched with about 40% oxygen (normoxia). For the measurement of the haemodynamic parameters such as pulmonary arterial pressure (PAP), blood pressure (BP) and heart rate (HR), catheters were inserted into the carotid artery to measure the blood pressure, and a Swan-Ganz® catheter was introduced in a flow-directed manner via the jugular vein into the pulmonary artery. The haemodynamic signals were recorded and evaluated by means of pressure transducers (Combitransducer, B. Braun, Melsungen, Germany)/amplifiers and Ponemah® as data aquisition software.
After the instruments have been placed into the animals, continuous infusion of a thromboxane A2 analog was initiated to increase the pulmonary arterial pressure. […] D0400, or Cayman Chemical Company, cat. no. 16440), dissolved in physiological saline, were infused to achieve an increase of the mean pulmonary arterial pressure to values of over 25 mmHg. 30 minutes after the start of the infusion, a plateau was reached, and the experiment was started.
The test substances were administered as i.v. infusion or by inhalation. For the preparation of the solution for inhalation, the following procedure was adopted: For an animal having a weight of 4 kg, to prepare the stock solution (300 μg/kg), 1.2 mg of the test compound were weighed out and dissolved in a total volume of 3 ml (1% DMSO, 99% 0.2% strength citric acid solution, 1 N aqueous sodium hydroxide solution to adjust the pH to 8). The solution was then diluted to the concentration employed using 0.2% strength citric acid which had been adjusted to pH 8 beforehand with aqueous sodium hydroxide solution. In each test, 3 ml of the solution of test compound per 4 kg animal were nebulized in the inhalation arm of the respiratory circuit using the Aeroneb® Pro nebulizer system. The mean nebulization time was about 7 min from the start of the nebulization.

[3] = Thermal stability of the solid (90° C., 7 days, HPLC peak areas); assay type: physicochemical
Description: 0.3 mg of the test compound, e.g. comparative example 11 were solved in 0.1 ml dimethylsulfoxide and 0.4 ml acetonitrile. Then 1.0 ml water was added. For complete dissolution the HPLC vial was shaken and sonicated. This solution was immediately analyzed by HPLC (reference at t0). 0.3 mg of the test compound was weighed into another HPLC vial. The vial was capped and stored for 7 days in a heating block at 90° C.
After this time the vial was decapped and 0.1 ml dimethylsulfoxide and 0.4 ml acetonitrile were added to the stressed compound. Then 1.0 ml water was added. For complete dissolution the HPLC vial was shaken and sonicated. The sample was analyzed by HPLC (sample after 1 week). The peak areas in percentage are used for quantification.

[4] = Storage stability of pseudopolymorphic forms (XRPD after storage); assay type: physicochemical; conditions: monohydrate II as starting material; one, three and six months; container, temperature, relative humidity per example

O=C(O)CCCCN(CCc1ccccc1OCc1ccc(CCc2ccccc2)cc1)Cc1ccc(C(=O)O)cc1 [comparative example 1, Cinaciguat]
Relaxation (%) (timepoint at 70 min) Mean ([1]; 1 nmol/l): 60.4% | Relaxation (%) (timepoint at 130 min) Mean ([1]; 1 nmol/l): 66.2%

COC(=O)N(C)c1c(N)nc(-c2nn(Cc3ccccc3F)c3ncccc23)nc1N [comparative example 2, Riociguat]
Relaxation (%) (timepoint at 70 min) Mean ([1]; 1 μmol/l): 29.1% | Relaxation (%) (timepoint at 130 min) Mean ([1]; 1 μmol/l): 85.1%

Cc1ccc2oc(-c3ccc(COc4ccccc4CCN(CCCCC(=O)O)C4CCCc5nc(C(=O)O)ccc54)cc3)nc2c1 (single isomer, unassigned; (+)) [comparative example 5, (+)-5-{(4-Carboxybutyl)[2-(2-{[4-(5-methyl-1,3-benzoxazol-2-yl)benzyl]oxy}phenyl)ethyl]amino}-5,6,7,8-tetrahydroquinoline-2-carboxylic acid]
BP % change vs. baseline ([2]; time 80 min): 100.0% | PAP % change vs. baseline ([2]; time 80 min): 100.0% | BP % change vs. baseline ([2]; time 90 min): 100.0% | PAP % change vs. baseline ([2]; time 90 min): 101.5% and 99.2% and 102.0% | BP % change vs. baseline ([2]; time 100 min): 99.1% and 97.7% and 101.8% | PAP % change vs. baseline ([2]; time 100 min): 98.0% and 90.0% and 93.8% | BP % change vs. baseline ([2]; time 110 min): 99.1% and 97.7% and 100.0% | PAP % change vs. baseline ([2]; time 110 min): 91.7% and 86.4% and 79.0% | BP % change vs. baseline ([2]; time 120 min): 99.1% and 96.6% and 97.3% | PAP % change vs. baseline ([2]; time 120 min): 90.0% and 86.1% and 73.7% | BP % change vs. baseline ([2]; time 130 min): 98.1% and 97.7% and 97.3% | PAP % change vs. baseline ([2]; time 130 min): 87.6% and 88.6% and 72.9% | BP % change vs. baseline ([2]; time 140 min): 98.1% and 98.9% and 97.3% | PAP % change vs. baseline ([2]; time 140 min): 87.1% and 93.0% and 73.7% | BP % change vs. baseline ([2]; time 150 min): 95.3% and 100.0% and 97.3% | PAP % change vs. baseline ([2]; time 150 min): 87.6% and 95.0% and 75.1% | BP % change vs. baseline ([2]; time 160 min): 96.2% and 101.1% and 98.2% | PAP % change vs. baseline ([2]; time 160 min): 88.7% and 96.4% and 77.8% | BP % change vs. baseline ([2]; time 170 min): 95.3% and 101.1% and 96.4% | PAP % change vs. baseline ([2]; time 170 min): 89.8% and 97.8% and 79.2% | BP % change vs. baseline ([2]; time 180 min): 95.3% and 101.1% and 97.3% | PAP % change vs. baseline ([2]; time 180 min): 90.0% and 100.6% and 81.5% | BP % change vs. baseline ([2]; time 190 min): 94.3% and 102.3% and 96.4% | PAP % change vs. baseline ([2]; time 190 min): 90.9% and 101.9% and 81.9% | BP % change vs. baseline ([2]; time 200 min): 92.5% and 103.4% and 95.5% | PAP % change vs. baseline ([2]; time 200 min): 91.4% and 102.8% and 85.2% | BP % change vs. baseline ([2]; time 210 min): 91.5% and 102.3% and 96.4% | PAP % change vs. baseline ([2]; time 210 min): 92.7% and 104.2% and 88.1% | BP % change vs. baseline ([2]; time 220 min): 91.5% and 103.4% and 96.4% | PAP % change vs. baseline ([2]; time 220 min): 94.5% and 105.8% and 91.3% | BP % change vs. baseline ([2]; time 230 min): 91.5% and 103.4% and 94.6% | PAP % change vs. baseline ([2]; time 230 min): 95.1% and 106.1% and 93.1% | BP % change vs. baseline ([2]; time 240 min): 90.6% and 102.3% and 94.6% | PAP % change vs. baseline ([2]; time 240 min): 95.5% and 105.8% and 92.9% | BP % change vs. baseline ([2]; time 250 min): 90.6% and 102.3% and 94.6% | PAP % change vs. baseline ([2]; time 250 min): 96.5% and 105.8% and 94.3% | BP % change vs. baseline ([2]; time 260 min): 89.6% and 101.1% and 93.8% | PAP % change vs. baseline ([2]; time 260 min): 98.1% and 106.4% and 95.5% | BP % change vs. baseline ([2]; time 270 min): 90.6% and 103.4% and 93.8% | PAP % change vs. baseline ([2]; time 270 min): 98.6% and 107.5% and 95.9% | BP % change vs. baseline ([2]; time 280 min): 89.6% and 100.0% and 93.8% | PAP % change vs. baseline ([2]; time 280 min): 98.6% and 106.4% and 97.2% | BP % change vs. baseline ([2]; time 290 min): 88.7% and 102.3% and 92.9% | PAP % change vs. baseline ([2]; time 290 min): 99.6% and 105.8% and 98.4% | BP % change vs. baseline ([2]; time 300 min): 89.6% and 100.0% and 92.0% | PAP % change vs. baseline ([2]; time 300 min): 100.1% and 107.0% and 98.6% | BP % change vs. baseline ([2]; time 310 min): 89.6% and 100.0% and 91.1% | PAP % change vs. baseline ([2]; time 310 min): 101.7% and 107.5% and 99.6% | BP % change vs. baseline ([2]; time 320 min): 89.6% and 105.7% and 91.1% | PAP % change vs. baseline ([2]; time 320 min): 102.8% and 109.5% and 100.1% | BP % change vs. baseline ([2]; time 330 min): 89.6% and 98.9% and 89.3% | PAP % change vs. baseline ([2]; time 330 min): 102.9% and 106.1% and 99.3% | duration of action ([2]; nominal dose of 100 μg/kg): only a moderate duration of action | lung selectivity ([2]; nominal dose of 100 μg/kg): good lung selectivity | thermal stability [3]: limited thermal stability

Ethyl 5-{[2-(2-{[3-chloro-4′-(trifluoromethyl)biphenyl-4-yl]methoxy}phenyl)ethyl]amino}-5,6,7,8-tetrahydroquinoline-2-carboxylate dihydrochloride [7a]
Result (form after storage) [4]: monohydrate II

O.O=C(O)c1ccc(CCN(CCc2ccccc2OCc2ccc(-c3ccc(C(F)(F)F)cc3)cc2Cl)[C@H]2CCCc3nc(C(=O)O)ccc32)cc1 [7d]
Result (form after storage) [4]: monohydrate I
